According to patent US8546443B2, “Benzylic oxindole pyrimidines” (Boehringer Ingelheim International GmbH, priority 2010, dated 2013):

Tests used:
[1] = molecular target: T1, cytoplasmic kinase domain of human IGF-1R (IGF-1R-GST) (Homo sapiens, UniProt P08069); assay: Insulin-like growth factor-1 receptor (IGF-1R) kinase assay (DELFIA); format: biochemical; conditions: IGF-1R-GST kinase activity, read-out: IGF1R IC50
T1 construct: cytoplasmic kinase domain of human IGF-1R (amino acids 964-1370); GST (glutathione-S-transferase); made in house; host or cells: High Five insect cells (Invitrogen)
How it was run: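 GST-tagged IGF-1R cytoplasmic kinase domain phosphorylates pEY with biotinylated pEY for 40 min at RT; EDTA stop. Product captured on streptavidin, detected with europium anti-phosphotyrosine antibody by DELFIA time-resolved fluorescence; IC50 from inhibition curves.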

[2] = system: TC-71 (Ewing's sarcoma) cells; assay: Cell proliferation assay, TC-71 (Alamar Blue); format: cell-based; conditions: 72 h with compound, EC50 ranges as class symbols
Description: Cell Proliferation Assays
Compounds were tested for their anti-proliferative effects in the TC-71 (Ewing's sarcoma) and HCT 116 (colorectal carcinoma) cancer cell lines in vitro. Published scientific data has described that interference with the Insulin-like Growth Factor-1 Receptor (IGF-1R) signaling pathway reduces the proliferation of TC-71 cells. Therefore TC-71 cells served as a positive control cell line for monitoring the activity of compounds against IGF-1R-mediated cell proliferation. […] Therefore the HCT 116 cell line served as a negative control.
2000 TC-71 cells or 1000 HCT 116 cells were seeded per well in 180 μL IMDM+10% foetal calf serum (FCS)+ penicillin/streptomycin into 96-well microtitre plates. The plates were placed in a cell culture incubator (37° C. in a humidified atmosphere of […]/5 CO2) overnight. The following day, serial dilutions of compounds, prepared in duplicates, were transferred onto the cell layers (controls without compound). The cells were cultivated for a further 72 h in the cell culture incubator. 20 μL of Alamar Blue™ (Serotec Ltd, Düsseldorf, Germany) was added to each well and the plates incubated for 7 h in the cell culture incubator. Fluorescence (extinction wavelength of 544 nm and emission at 590 nm) was then measured and the normalized data fitted by iterative calculation with a sigmoidal curve analysis program (Graph Pad Prism) with a variable Hill slope to determine the IC50 values.

T1 sequence (P08069 964-1367 limits assumed): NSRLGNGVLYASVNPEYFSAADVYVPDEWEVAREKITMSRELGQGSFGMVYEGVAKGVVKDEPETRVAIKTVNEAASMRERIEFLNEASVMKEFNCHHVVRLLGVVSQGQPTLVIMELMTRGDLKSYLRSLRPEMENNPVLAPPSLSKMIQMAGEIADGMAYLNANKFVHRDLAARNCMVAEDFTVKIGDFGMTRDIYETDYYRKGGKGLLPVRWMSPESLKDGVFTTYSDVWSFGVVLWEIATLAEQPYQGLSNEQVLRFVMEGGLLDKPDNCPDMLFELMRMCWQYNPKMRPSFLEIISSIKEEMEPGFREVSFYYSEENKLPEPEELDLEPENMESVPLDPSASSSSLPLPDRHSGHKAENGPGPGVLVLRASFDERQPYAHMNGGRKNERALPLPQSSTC

Row | SMILES | IC50 [1] [nM] | EC50 [2] [nM]
1 | Cc1cc(Nc2ncc(Cl)c(NCc3cccc4c3C(C)(C)C(=O)N4)n2)ccc1C1CCN(CC(C)(C)O)CC1 [Example I-334] | 0.4 | < 50
2 | COc1cc(N2CCN(CC(C)(C)O)CC2)ccc1Nc1ncc(Cl)c(NCc2cccc3c2C(C)(C)C(=O)N3)n1 [Example I-335] | 3 | < 50
3 | Cc1cc(N2CCN(CC(C)(C)O)CC2)ccc1Nc1ncc(Cl)c(NCc2cccc3c2C(C)(C)C(=O)N3)n1 [Example I-336] | 4 | 50 to 250
4 | Cc1cc(Nc2ncc(Cl)c(NCc3cccc4c3C(C)(C)C(=O)N4)n2)c(F)cc1C1CCN(CC(C)(C)O)CC1 [Example I-337] | 9 | 250 to 3000
5 | Cc1c(Nc2ncc(Cl)c(NCc3cccc4c3C(C)(C)C(=O)N4)n2)ccc(C2CCN(CC(C)(C)O)CC2)c1C [Example I-339] | 2.1 | < 50
6 | CC(C)(O)CN1CCC(c2ccc(Nc3ncc(Cl)c(NCc4cccc5c4C(C)(C)C(=O)N5)n3)c(OC(F)(F)F)c2)CC1 [Example I-340] | 11 | 50 to 250
7 | CC(C)(O)CN1CCC(c2ccc(Nc3ncc(Cl)c(NCc4cccc5c4C(C)(C)C(=O)N5)n3)c3c2OCO3)CC1 [Example I-341] | 0.9 | < 50
8 | CC(C)(O)CN1CCC(c2ccc(Nc3ncc(Cl)c(NCc4cccc5c4C(C)(C)C(=O)N5)n3)c(OC(F)F)c2)CC1 [Example I-342] | 3 | < 50
9 | COCCN1CCC(c2ccc(Nc3ncc(C(F)(F)F)c(NCc4cccc5c4C(C)(C)C(=O)N5)n3)c(C)c2)CC1 [Example I-352] | 0.8 | < 50
10 | COCCN1CCN(c2ccc(Nc3ncc(C(F)(F)F)c(NCc4cccc5c4C(C)(C)C(=O)N5)n3)c(OC)c2)CC1 [Example I-353] | 2 | < 50
11 | Cc1cc(C2CCN(CCO)CC2)ccc1Nc1ncc(C(F)(F)F)c(NCc2cccc3c2C(C)(C)C(=O)N3)n1 [Example I-355] | 0.5 | 250 to 3000
12 | COCCN1CCC[C@@H](c2ccc(Nc3ncc(Br)c(NCc4cccc5c4C(C)(C)C(=O)N5)n3)c(C)c2)C1 [Example I-362] | 0.3 | < 50
13 | COCCN1CCC[C@H](c2ccc(Nc3ncc(Br)c(NCc4cccc5c4C(C)(C)C(=O)N5)n3)c(C)c2)C1 [Example I-363] | 2 | 50 to 250
14 | CCc1cc(C2CCN(CCOC)CC2)ccc1Nc1ncc(Br)c(NCc2cccc3c2C(C)(C)C(=O)N3)n1 [Example I-367] | 3 | < 50
15 | COCCN1CCN(c2ccc(Nc3ncc(Br)c(NCc4cccc5c4C(C)(C)C(=O)N5)n3)c(OC)c2)CC1 [Example I-369] | 2 | < 50
16 | COc1cc(C2CCN(CC#N)CC2)ccc1Nc1ncc(Cl)c(NCc2cccc3c2C(C)(C)C(=O)N3)n1 [Example I-374] | 11 | 50 to 250
17 | Cc1cc(C2CCN(CC#N)CC2)ccc1Nc1ncc(Cl)c(NCc2cccc3c2C(C)(C)C(=O)N3)n1 [Example I-375] | 9 | < 50
18 | COCCN1CCC(c2ccc(Nc3ncc(Cl)c(NCc4cccc5c4C(C)(C)C(=O)N5)n3)cc2C)CC1 [Example I-376] | 0.6 | < 50
19 | Cc1cc(C2CCN(CC(C)(C)O)CC2)ccc1Nc1ncc(Cl)c(NCc2cccc3c2C(C)(C)C(=O)N3)n1 [Example I-377] | 0.9 | < 50
20 | CCc1cc(C2CCN(CC(C)(C)O)CC2)ccc1Nc1ncc(Cl)c(NCc2cccc3c2C(C)(C)C(=O)N3)n1 [Example I-378] | 6 | 50 to 250
21 | CCc1cc(C2CCN(CCOC)CC2)ccc1Nc1ncc(Cl)c(NCc2cccc3c2C(C)(C)C(=O)N3)n1 [Example I-385] | 4 | 50 to 250
22 | COCCN1CCN(c2ccc(Nc3ncc(Cl)c(NCc4cccc5c4C(C)(C)C(=O)N5)n3)c(OC)c2)CC1 [Example I-386] | 3 | < 50
